By IC50 is commonly meant the concentration that inhibits the measured activity by half. As a reminder, the EC50 is the concentration giving half of the maximal effect.

A value given as a limit tells only on which side of the number the result lay.

The target in one assay is T1, human MC5R (Homo sapiens, UniProt P33032).
T1 construct: expressed in transfected cells; host or cells: HEK293-6E suspension cells, transient expression; membranes
As to the kind of experiment: Melanocortin receptor radioligand binding (SPA, [125I]-NDP-α-MSH displacement), MC5R. As to conditions: competitive binding, [125I]-NDP-α-MSH; mean (± SEM) of at least three independent experiments; read-out: IC50 hMC5R binding.

Assay [1] addresses T2, human MC3R (Homo sapiens, UniProt P41968).
T2 construct: expressed in transfected cells
As to the kind of experiment: cAMP assay (LANCE) in T-Rex-293 cells expressing MC3R. The format is cell-based. As to conditions: for EC50: cAMP assay, mean (± SEM) of at least three independent experiments, read-out: EC50 hMC3R cAMP. (Cyclic AMP is a second messenger, typically raised through Gs and lowered through Gi signalling.)

In assay [2] the target is T3, human MC1R (Homo sapiens, UniProt Q01726).
T3 construct: expressed in transfected cells
T3 sequence (Q01726 whole entry): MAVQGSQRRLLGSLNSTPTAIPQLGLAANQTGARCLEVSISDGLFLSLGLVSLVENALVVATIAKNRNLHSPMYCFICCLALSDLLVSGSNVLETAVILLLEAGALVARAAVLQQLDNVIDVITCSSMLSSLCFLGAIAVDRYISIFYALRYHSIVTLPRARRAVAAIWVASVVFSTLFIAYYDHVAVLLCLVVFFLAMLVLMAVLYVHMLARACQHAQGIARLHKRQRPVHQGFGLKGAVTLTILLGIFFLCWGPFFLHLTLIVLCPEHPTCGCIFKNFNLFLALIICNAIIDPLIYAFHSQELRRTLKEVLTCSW
As to the kind of experiment: cAMP assay (LANCE) in T-Rex-293 cells expressing MC1R. The format is cell-based. As to conditions: for Emax: T-REx-293, read-out: % Effect hMC1R cAMP; for EC50: cAMP assay, mean (± SEM) of at least three independent experiments, read-out: EC50 hMC1R cAMP.

Assay [3] addresses T2, human MC3R. As to the kind of experiment: Melanocortin receptor radioligand binding (SPA, [125I]-NDP-α-MSH displacement), MC3R. As to conditions: competitive binding, mean (± SEM) of at least three independent experiments, read-out: IC50 hMC3R binding.
Assay [4] addresses T3, human MC1R. As to the kind of experiment: Melanocortin receptor radioligand binding (SPA, [125I]-NDP-α-MSH displacement), MC1R. The conditions noted are these: competitive binding, mean (± SEM) of at least three independent experiments, read-out: IC50 hMC1R binding.
Assay [5] has as its target T4, human MC4R (Homo sapiens, UniProt P32245).
T4 construct: expressed in transfected cells
As to the kind of experiment: cAMP assay (LANCE) in T-Rex-293 cells expressing MC4R. The conditions noted are these: for EC50: cAMP assay, mean (± SEM) of at least three independent experiments, read-out: EC50 hMC4R cAMP. The format is cell-based.

Assay [6] has as its target T4, human MC4R. As to the kind of experiment: Melanocortin receptor radioligand binding (SPA, [125I]-NDP-α-MSH displacement), MC4R. The conditions noted are these: competitive binding, mean (± SEM) of at least three independent experiments, read-out: IC50 hMC4R binding.
Where [7] appears, read: Emax (curve plateau), relative to NDP-α-MSH, NA = No Activity detected, threshold 20% effect.

T1 sequence (P33032 whole entry): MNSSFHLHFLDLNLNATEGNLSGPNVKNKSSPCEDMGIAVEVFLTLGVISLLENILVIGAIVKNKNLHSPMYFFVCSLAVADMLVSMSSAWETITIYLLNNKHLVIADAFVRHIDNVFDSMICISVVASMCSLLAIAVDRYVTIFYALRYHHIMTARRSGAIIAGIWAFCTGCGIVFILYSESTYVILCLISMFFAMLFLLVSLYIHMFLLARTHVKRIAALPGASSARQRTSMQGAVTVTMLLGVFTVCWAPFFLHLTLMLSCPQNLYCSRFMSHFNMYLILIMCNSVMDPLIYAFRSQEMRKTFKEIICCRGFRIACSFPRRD
T4 sequence (P32245 whole entry): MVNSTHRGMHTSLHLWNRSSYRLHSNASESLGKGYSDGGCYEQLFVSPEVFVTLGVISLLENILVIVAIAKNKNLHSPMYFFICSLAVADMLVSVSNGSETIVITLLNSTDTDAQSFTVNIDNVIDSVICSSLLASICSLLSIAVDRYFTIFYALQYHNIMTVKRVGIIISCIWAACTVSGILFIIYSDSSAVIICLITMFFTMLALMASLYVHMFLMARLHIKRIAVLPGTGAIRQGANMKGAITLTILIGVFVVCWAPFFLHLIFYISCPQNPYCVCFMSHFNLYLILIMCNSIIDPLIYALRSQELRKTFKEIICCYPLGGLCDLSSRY
T2 sequence (P41968 whole entry): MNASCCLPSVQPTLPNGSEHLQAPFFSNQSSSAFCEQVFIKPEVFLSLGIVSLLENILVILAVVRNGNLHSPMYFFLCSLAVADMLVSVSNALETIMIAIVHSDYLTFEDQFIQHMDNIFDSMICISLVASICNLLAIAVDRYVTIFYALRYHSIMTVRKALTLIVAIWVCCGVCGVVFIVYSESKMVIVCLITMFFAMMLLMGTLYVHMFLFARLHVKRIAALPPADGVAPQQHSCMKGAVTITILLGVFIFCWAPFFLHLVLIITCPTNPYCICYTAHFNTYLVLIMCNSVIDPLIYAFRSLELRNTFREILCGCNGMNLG

On to `C[C@@H]1NC(=O)[C@H](CC(N)=O)NC(=O)[C@H](Cc2ccccc2)NC(=O)[C@H](Cc2ccccc2)NC(=O)[C@H](CCCNC(=N)N)NC(=O)[C@H](Cc2ccccc2)N(C)C(=O)[C@H]2N[C@@H](c3ccc(cc3)C(=O)NCCCC[C@@H](C(=O)N[C@@H](Cc3ccc(O)cc3)C(N)=O)NC1=O)[C@H]1C(=O)N(C)C(=O)[C@H]12` [F1-major*, [ I-FRFFNAK ]Y], for which the IC50 at human MC5R is 49 ± 2 µM; at human MC3R [3], > 100 µM; on human MC1R [4], > 100 µM; on human MC4R [6], > 100 µM. Further, the EC50 at human MC3R [1] was > 100 µM; on human MC1R [2] it was 14 ± 4 µM; at human MC4R [5], > 100 µM. Further, on human MC1R [2], the Emax amounted to 31%.
For the molecule `COc1ccc(N2C(=O)[C@@H]3[C@H](C2=O)[C@H]2N[C@@H]3c3ccc(cc3)C(=O)NCCCC[C@@H](C(=O)NCC(N)=O)NC(=O)[C@H](CC(N)=O)NC(=O)[C@@H](Cc3ccccc3)NC(=O)[C@@H](Cc3ccccc3)NC(=O)[C@H](CCCNC(=N)N)NC(=O)[C@H](Cc3ccccc3)N(C)C2=O)cc1` [K4-major, [III-FRffNK ]G], the IC50 was 16 ± 1 µM at human MC5R, 57 ± 1 µM at human MC3R [3], 58 ± 1 µM at human MC1R [4] and > 100 µM on human MC4R [6]. For the same molecule, the “% Effect hMC3R cAMP” value at human MC3R [1] (setting [7]) was determined as 26%. For the same molecule, the EC50 on human MC3R [1] was 6.4 ± 1.1 µM; on human MC1R [2], 3.9 ± 0.5 µM; on human MC4R [5], 3.7 ± 0.2 µM. The Emax on human MC1R [2] turned out to be 85%. For the same molecule, the “% Effect hMC4R cAMP” value on human MC4R [5] (setting [7]) stood at 66%.
Turning to `CN1C(=O)[C@H]2N[C@@H](c3ccc(cc3)C(=O)NCCCC[C@@H](C(=O)NCC(N)=O)NC(=O)[C@H](CC(N)=O)NC(=O)[C@@H](Cc3ccccc3)NC(=O)[C@@H](Cc3ccccc3)NC(=O)[C@H](CCCNC(=N)N)NC(=O)[C@@H]1Cc1ccccc1)[C@H]1C(=O)N(c3ccccc3)C(=O)[C@H]12` [K3-minor, [II-FRffNK ]G], the IC50 at human MC5R, on human MC3R [3], at human MC1R [4] and at human MC4R [6] was > 10 µM in each case. For the same molecule, the EC50 at human MC3R [1], at human MC1R [2] and at human MC4R [5] was > 10 µM in each case.
Regarding `CN1C(=O)[C@H]2N[C@@H](c3ccc(cc3)C(=O)NCCCC[C@@H](C(N)=O)NC(=O)[C@H](Cc3ccccc3)NC(=O)[C@H](Cc3ccccc3)NC(=O)[C@H](CCCNC(=N)N)NC(=O)[C@@H]1Cc1ccccc1)[C@H]1C(=O)N(c3ccccc3)C(=O)[C@H]12` [N3-major*, [II-FRFFK ]], the IC50 was 74 ± 4 µM on human MC5R, > 100 µM at human MC3R [3], > 100 µM at human MC1R [4] and > 100 µM on human MC4R [6]. Besides, the EC50 is > 100 µM on human MC3R [1], 22 ± 3 µM at human MC1R [2] and > 100 µM at human MC4R [5]. Moreover, the Emax on human MC1R [2] worked out at 40%.
Turning to `C[C@@H]1NC(=O)[C@H](CC(N)=O)NC(=O)[C@H](Cc2ccccc2)NC(=O)[C@H](Cc2ccccc2)NC(=O)[C@H](CCCNC(=N)N)NC(=O)[C@H](Cc2ccccc2)N(C)C(=O)[C@H]2N[C@@H](c3ccc(cc3)C(=O)NCCCC[C@@H](C(=O)NCC(N)=O)NC(=O)[C@H](Cc3ccccc3)NC1=O)[C@H]1C(=O)N(C)C(=O)[C@H]12` [B2-minor, [ I-FRFFNAFK ]G], the IC50 at human MC5R was 31 ± 0.4 µM; at human MC3R [3] it was > 100 µM; on human MC1R [4] it was > 100 µM; at human MC4R [6], 96 ± 4 µM. The EC50 on human MC3R [1] is > 100 µM; on human MC1R [2] it was 10 ± 2 µM; at human MC4R [5] it was > 100 µM. The Emax on human MC1R [2] is 39%.
Regarding `C[C@@H]1NC(=O)[C@H](CC(N)=O)NC(=O)[C@@H](Cc2ccccc2)NC(=O)[C@@H](Cc2ccccc2)NC(=O)[C@H](CCCNC(=N)N)NC(=O)[C@H](Cc2ccccc2)N(C)C(=O)[C@@H]2N[C@H](c3ccc(cc3)C(=O)NCCCC[C@@H](C(=O)NCC(N)=O)NC(=O)[C@H](Cc3ccccc3)NC1=O)[C@@H]1C(=O)N(C)C(=O)[C@@H]12` [C4-major, [I-FRffNAFK ]G], the IC50 on human MC5R is 36 ± 3 µM; on human MC3R [3] it was > 100 µM; at human MC1R [4], 88 ± 1 µM; on human MC4R [6], 72 ± 4 µM. Moreover, the EC50 on human MC3R [1] was > 100 µM; at human MC1R [2], 2.2 ± 1 µM; at human MC4R [5], > 100 µM. Also, the Emax on human MC1R [2] was found to be 56%.

The values above are taken from article PMC7307906, “Macrocyclic Modalities Combining Peptide Epitopes and Natural Product Fragments” (Journal of the American Chemical Society, 2020).
